What was measured:
[1] = system: Sclerocorneal human trabecular meshwork cells (HTM cells); assay: MTT cell viability test on HTM cells with or without H2O2 oxidative damage; format: cell-based; conditions: H2O2 only
Experimental: (§1) Commercially available endothelial cellular lines of sclerocorneal trabecular meshwork were used. Said lines undergone a physiological ageing lasted about 10 cycles of cellular replication, thus representing a validated in vitro model of sclerocorneal trabecular meshwork degeneration. Sclerocorneal human trabecular meshwork cells (HTM cells. ScienceCell Research Laboratories, CA, USA) were grown in a nutritional medium containing 10% v/v fetal bovine serum, 2 mM L-glutamine, penicillin (100 IU/mL) at 37° C. in the presence of 5% v/v CO2. Once cells were semi-confluent (80% covering of the plate surface), cells were collected by treatment with trypsin/EDTA and distributed in multiwell microplates at a density of 7×10^3 cells/well. Cells at 80% confluence were pre-treated for 30 minutes with 50 μL of eye drops with different polyphenolic concentration (0.15% Perilla frutescens extract in 0.25% sodium hyaluronate (high eye drops) compared with a 0.10% Perilla frutescens extract in 0.25% sodium hyaluronate (standard eye drops)). […]
At the end of the treatment, the culture medium was removed, and cell viability and genotoxic damage were evaluated. […]
In particular, cell viability was assessed using the metabolization test of 3-(4,5-dimethyithiazol-2-yl)-2,5-diphenyltetrazolium bromide (MTT). […] The results were analysed by ANOVA using the Statview statistic software.

HTM cells [2] = assay: Microscopic morphologic aspect of HTM cells in the different conditions of treatment; format: cell-based, human; conditions: treatment with substance only
Experimental: as §1

HTM cells [3] = assay: Genotoxic damage (comet test) in HTM cells; format: cell-based, human; conditions: treatment with substance only
Experimental: Commercially available endothelial cellular lines of sclerocorneal trabecular meshwork were used. Said lines undergone a physiological ageing lasted about 10 cycles of cellular replication, thus representing a validated in vitro model of sclerocorneal trabecular meshwork degeneration. Sclerocorneal human trabecular meshwork cells (HTM cells. ScienceCell Research Laboratories, CA, USA) were grown in a nutritional medium containing 10% v/v fetal bovine serum, 2 mM L-glutamine, penicillin (100 IU/mL) at 37° C. in the presence of 5% v/v CO2. […]
For the assessment of genotoxic damage, the comet test was used. […] In particular, the aspect of DNA fragmentation acquired by the comet test in HTM cells was evaluated. […] The images were then analysed at 400 magnifications by fluorescence microscope (Leica DMI 4000B) equipped with digital camera (Leica DFC 310 FX). For each slide a minimum of 100 nuclei were analysed by CASP imaging analysis system (Comet assay software project, http://www.casp.sourceforge.net). Single-strand and double-strand breaks were quantified in terms of “tail moment”, which is the product of the comet tail length multiplied by the total DNA fraction in the tail. […] The significance of differences among the various treatments was determined by ANOVA test.

[4] = Corneal permeabilization / bioavailability test on whole ox eye with fluoresceine tracer; format: in vitro ADME; conditions: 30 minutes after application on anterior corneal surface
Experimental: The bioavailability was tested on whole ox eye (in vitro test) and on rabbit eyes (test in vivo) by applying the eye drops on the anterior corneal surface. A fluorescent tracer (fluoresceine) was added to the eye drops to follow the intraocular pharmacokinetics thereof. The transcorneal distribution of the std eye drops was evaluated by a slit lamp with determination of the fluorescence on both sides of the corneal membrane. A fluorescent tracer was added to the eye drops in order to follow the intraocular pharmacokinetics thereof. […] At the end of the prescribed time, its adsorption through the anterior chamber was assessed using a slit lamp. […] After the treatment, the fluid contained in the anterior chamber was collected and subjected to spectrofluorimetric analysis for the quantification of the tracer able to cross the corneal membrane. For the analysis, a […] spectrofluorometer (Hitachi, Tokyo, Japan) calibrated on specific fluorescence characteristics of fluoresceine (excitation 500 nm, emission 561 nm) was used. […] The ability of the std eye drops, both as such and in nanoparticle form, to pass the corneal membrane was thus determined by analysis del fluorescent track present in the fluid in the anterior chamber 30 minutes after the application of the preparation on the anterior corneal surface.

fluorescent tracer in the fluid of the anterior chamber (spectrofluorimetry) [4] | Compound | cytopathic effect (MTT cell viability) [1] | HTM cell morphology (HTM cells [2]) | DNA damage / fragmentation (comet test) (HTM cells [3])
– | OO [H2O2] | substantial cytopathic effect | cells take a rounded shape, separate from the substrate and reflect the light | nuclei are massively dissolved with evident diffusion of the fragmented DNA
conspicuous and specific positive signal | O=C1OC2(c3ccc(O)cc3Oc3cc(O)ccc32)c2ccccc21 [fluoresceine, fluorescein sodium] | – | – | –
